From patent publication US5824687A, “Pyridinium salts and their use for the control of helicobacter bacteria” (BYK Gulden Lomberg Chemische Fabrik GmbH, priority 1993, dated 1998)

Tested on: Helicobacter pylori
Assay: Activity against Helicobacter pylori (MIC, Columbia agar (Oxoid), growth period of 4 days)
Format: cell-based
Conditions: 96 h, methodology of Tomoyuki Iwahi et al.
Source text: The compounds according to the invention were investigated with respect to their activity against Helicobacter pylori following the methodology described by Tomoyuki Iwahi et al. (Antimicrobial Agents and Chemotherapy,1991, 490-496) using Columbia agar (Oxoid) and with a growth period of 4 days.

| MIC [µg/mL] | SMILES |
| --- | --- |
| ≤ 10 | Cc1c(C)[n+]2cccc(OCc3ccccc3)c2n1Cc1ccc(F)cc1 [Compound 3, 8-Benzyloxy-1-(4-fluorobenzyl)-2,3-dimethylimidazo-[1,2-a]pyridinium bromide] |
| ≤ 10 | COC(=O)c1ccc(Cn2c(C)c(C)[n+]3cccc(OCc4ccccc4)c23)cc1 [Compound 4, 8-Benzyloxy-1-(4-methoxycarbonylbenzyl)-2,3-dimethylimidazo[1,2-a]pyridinium bromide] |
| ≤ 10 | Cc1c(C)[n+]2cccc(OCc3ccccc3)c2n1CCc1ccccc1 [Compound 5, 8-Benzyloxy-2,3-dimethyl-1-phenethylimidazo[1,2-a]pyridinium bromide] |
| ≤ 10 | Cc1c(CC#N)[n+]2cccc(OCc3ccccc3)c2n1CCc1ccccc1 [Compound 6, 8-Benzyloxy-3-cyanomethyl-2-methyl-1-phenethylimidazo[1,2-a]pyridinium bromide] |
| ≤ 10 | C#CCc1c(C)n(CCc2ccccc2)c2c(OCc3ccccc3)ccc[n+]12 [Compound 7, 8-Benzyloxy-2-methyl-1-phenethyl-3-(2-propynyl)imidazo[1,2-a]pyridiniumbromide] |
| ≤ 10 | Cc1c(C)[n+]2cccc(OCc3ccccc3)c2n1Cc1cc(F)cc(F)c1 [Compound 10, 8-Benzyloxy-1-(3,5-difluorobenzyl)-2,3-dimethylimidazo[1,2-a]pyridiniumbromide] |
| ≤ 10 | Cc1c(C)[n+]2cccc(OCc3ccccc3)c2n1Cc1ccc2ccccc2c1 [Compound 12, 8-Benzyloxy-2,3-dimethyl-1-(2-naphthylmethyl)imidazo[1,2-a]pyridinium bromide] |
| ≤ 10 | Cc1c(C)[n+]2cccc(OCc3ccccc3)c2n1Cc1cccc(C#N)c1 [Compound 13, 8-Benzyloxy-1-(3-cyanobenzyl)-2,3-dimethylimidazo[1,2-a]pyridinium bromide] |
| ≤ 10 | Cc1c(C)[n+]2cccc(OCc3ccccc3)c2n1Cc1ccc(-c2ccccc2)cc1 [Compound 18, 8-Benzyloxy-1-(4-biphenylmethyl)-2,3-dimethylimidazo[1,2-a]pyridinium bromide] |
